The values that follow come from US12290513B2, “Therapeutic methods and compositions for treating movement disorders” (Vima Therapeutics, Inc., priority 2023, dated 2025).

Like-named read-outs stand apart in the source and are kept apart here.

For data set [1], the target named is D2L (h) (antagonist radioligand) (Homo sapiens, UniProt P14416). The conditions noted are these: at the tested concentration; negative values set to zero.
Data set [2] concerns the target M4 (h) (antagonist radioligand) (Homo sapiens, UniProt P08173). The conditions noted are these: at the tested concentration; negative values set to zero.
For data set [3], the target named is CYP2C19 (Homo sapiens, UniProt P33261). Kind of data set: Incubation with recombinant CYP2C19.
CYP2C19, sequence (P33261 whole entry): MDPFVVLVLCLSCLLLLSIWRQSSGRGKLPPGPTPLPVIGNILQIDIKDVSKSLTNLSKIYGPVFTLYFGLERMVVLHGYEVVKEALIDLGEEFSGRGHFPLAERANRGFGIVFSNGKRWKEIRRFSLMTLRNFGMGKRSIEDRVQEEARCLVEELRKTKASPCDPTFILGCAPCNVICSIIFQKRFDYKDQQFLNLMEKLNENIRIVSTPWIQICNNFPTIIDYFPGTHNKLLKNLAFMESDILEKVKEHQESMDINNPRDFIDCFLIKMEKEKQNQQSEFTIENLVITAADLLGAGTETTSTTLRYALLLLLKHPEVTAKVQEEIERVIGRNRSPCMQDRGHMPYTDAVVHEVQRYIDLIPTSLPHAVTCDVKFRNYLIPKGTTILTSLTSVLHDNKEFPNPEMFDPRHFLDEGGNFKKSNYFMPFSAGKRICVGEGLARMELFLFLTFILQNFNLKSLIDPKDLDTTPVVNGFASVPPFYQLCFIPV
The nature of data set [4]: Whole blood stability, rat. The conditions noted are these: rat, blood; for Remaining Percentages (%) 0 min: 0 h, 1 μM. How it is done: Procedures for blood Stability. • A. 398 μL of blood from each species was added to an incubation plate, which was pre-warmed at 37C for 15 minutes. • B. After the pre-incubation, 2 μL of working solution (test compounds or control compounds) was spiked to 398 μL of blood to reach a final concentration of 1 μM for test compounds and 5 μM for control compounds. The final concentration of organic solvents is 0.5%. The assays were performed in duplicate. • C. The reaction samples were incubated at 37C. • D. Aliquots of 50 μL were taken from the reaction samples at 0, 15, 30, 60 and 120 minutes. The reaction was stopped by the addition of 50 μL ultrapure water and 400 μL cold acetonitrile. • E. All samples were vortexed for 10 minutes, followed by centrifugation at 3,220 g for 40 minutes to precipitate proteins. 100 μL of the supernatant was then transferred to a new plate. The supernatant was diluted with ultrapure water as needed for detection by LC-MS/MS. Sample Analysis
Samples were analyzed by LC-MS/MS to measure the concentration of the test compounds.
All calculations were carried out using Microsoft Excel and according to standard analysis methods that are known in the art.

Data set [5] can be described thus: Liver microsome stability, dog. The conditions noted are these: for CLint scaled at 1 μM / microsomal CLint at 1 μM / half-life at 1 μM: liver microsomes; for CLint scaled at 1 μM: Scale-up CLint; for microsomal CLint at 1 μM: in vitro CLint; for half-life at 1 μM: in vitro t1/2, dog liver microsomes. The procedure:
(§1) For the liver microsome assay: • 1. The master solution was prepared according to Table 3. All liver microsome samples were purchased from BD Gentest.
(§2) • 2. Two separate experiments were performed as follows: (i) With Cofactors (NADPH): 25 μL of 10 mM NADPH was added to the incubations. […] The reaction was started with the addition of 2.5 μL of 100 μM control compound or test compound solutions. […] Aliquots of 30 μL were taken from the reaction solution at 0.5, 5, 15, 30 and 60 minutes. The reaction was stopped by the addition of 5 volumes of cold acetonitrile with IS (100 nM alprazolam, 200 nM caffeine and 100 nM tolbutamide). Samples were centrifuged at 3,220 g for 40 minutes. Aliquots of 100 μL of the supernatant was mixed with 100 μL of ultra-pure H2O and then used for LC-MS/MS analysis to detect the levels of the test compound. • 5. All calculations were carried out using Microsoft Excel and according to standard analysis methods that are known in the art.

Data set [6] deals with CYP2C9 (Homo sapiens, UniProt P11712). Nature of the data set: Incubation with recombinant CYP2C9. The settings on record: for t1/2: unit not given.
CYP2C9, sequence (P11712 whole entry): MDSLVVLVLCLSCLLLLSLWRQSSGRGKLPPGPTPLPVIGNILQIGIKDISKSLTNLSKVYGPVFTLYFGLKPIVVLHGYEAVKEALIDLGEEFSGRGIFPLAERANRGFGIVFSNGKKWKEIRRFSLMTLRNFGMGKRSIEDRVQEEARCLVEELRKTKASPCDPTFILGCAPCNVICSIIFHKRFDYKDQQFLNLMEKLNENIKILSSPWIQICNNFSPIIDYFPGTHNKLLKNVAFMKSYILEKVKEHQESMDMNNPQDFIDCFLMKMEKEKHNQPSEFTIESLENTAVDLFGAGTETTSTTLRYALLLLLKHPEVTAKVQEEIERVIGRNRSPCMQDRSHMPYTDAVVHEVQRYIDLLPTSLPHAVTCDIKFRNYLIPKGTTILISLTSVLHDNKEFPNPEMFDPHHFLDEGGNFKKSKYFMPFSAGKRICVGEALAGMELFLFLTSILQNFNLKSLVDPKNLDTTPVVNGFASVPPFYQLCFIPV
A short description of data set [7]: Liver microsome stability, human. The conditions noted are these: for CLint scaled at 1 μM / microsomal CLint at 1 μM / half-life at 1 μM: liver microsomes; for CLint scaled at 1 μM: Scale-up CLint; for microsomal CLint at 1 μM: in vitro CLint; for half-life at 1 μM: in vitro t1/2, human liver microsomes. How it is done:
as §1, §2
Background: Microsomes from liver hold many membrane-bound enzymes, among them those of drug oxidation.

The target of data set [8] is kappa (h) (KOP) (agonist radioligand) (Homo sapiens, UniProt P41145). The conditions noted are these: at the tested concentration, negative values set to zero.
kappa (h) (KOP) (agonist radioligand), sequence (P41145 whole entry): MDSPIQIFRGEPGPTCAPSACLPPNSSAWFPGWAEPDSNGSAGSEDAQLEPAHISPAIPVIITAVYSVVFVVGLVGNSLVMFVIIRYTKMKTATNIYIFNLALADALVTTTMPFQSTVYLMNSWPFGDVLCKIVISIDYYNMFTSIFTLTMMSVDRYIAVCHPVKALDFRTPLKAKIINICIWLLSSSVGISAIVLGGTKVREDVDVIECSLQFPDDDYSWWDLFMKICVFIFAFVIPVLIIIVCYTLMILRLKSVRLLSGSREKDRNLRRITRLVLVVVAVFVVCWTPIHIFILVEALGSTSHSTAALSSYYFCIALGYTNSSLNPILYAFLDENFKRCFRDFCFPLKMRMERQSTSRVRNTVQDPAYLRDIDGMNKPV
Data set [9] can be described thus: Liver microsome stability, rat. The conditions noted are these: for CLint scaled at 1 μM / microsomal CLint at 1 μM / half-life at 1 μM: liver microsomes; for CLint scaled at 1 μM: Scale-up CLint; for microsomal CLint at 1 μM: in vitro CLint; for half-life at 1 μM: in vitro t1/2, rat liver microsomes. The procedure: as §1, §2
For data set [10], the target named is CYP3A5 (Homo sapiens, UniProt P20815). Kind of data set: Incubation with recombinant CYP3A5.
CYP3A5, sequence (P20815 whole entry): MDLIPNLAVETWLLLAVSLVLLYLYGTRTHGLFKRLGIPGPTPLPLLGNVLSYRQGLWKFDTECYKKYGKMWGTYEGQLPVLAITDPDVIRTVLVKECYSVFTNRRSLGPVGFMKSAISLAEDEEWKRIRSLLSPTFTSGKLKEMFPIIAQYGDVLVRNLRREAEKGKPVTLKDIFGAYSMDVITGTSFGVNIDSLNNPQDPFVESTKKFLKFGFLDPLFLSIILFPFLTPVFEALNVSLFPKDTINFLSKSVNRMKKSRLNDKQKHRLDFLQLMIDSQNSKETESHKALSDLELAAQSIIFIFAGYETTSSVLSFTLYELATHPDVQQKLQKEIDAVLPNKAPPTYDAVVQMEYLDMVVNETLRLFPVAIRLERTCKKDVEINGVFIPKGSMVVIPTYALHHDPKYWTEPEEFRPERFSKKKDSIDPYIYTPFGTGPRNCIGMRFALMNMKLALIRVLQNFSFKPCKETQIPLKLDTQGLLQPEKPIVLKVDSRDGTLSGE
Data set [11] concerns haloperidol-induced catalepsy. Kind of data set: Haloperidol-induced catalepsy (bar test). Format: in vivo, Sprague Dawley rats. The settings on record: for time spent holding bar, haloperidol-induced catalepsy: rats, haloperidol 1 mg/kg sc, Rac-THP 10, 20, 30 mg/kg, R-THP or S-THP 5, 10, 15 mg/kg ip. How it is done: Animals: Adult male Sprague Dawley rats (230-235 g) from Envigo were used in this study. Upon receipt, rats were group housed in ventilated cages and acclimated for one week prior to testing.
The front paws of a rat were placed then on a horizontal metal bar raised 6″ above a Plexiglas platform. Each rat underwent 3 trials of 60 seconds each. The test ended when the animal's front paws return to the platform or after 60 seconds. Rats were tested at 30 and 60 minutes after treatment.
Data were analyzed by one-way analysis of variance (ANOVA) followed by Tukey's post-hoc comparisons, where appropriate. Data are represented as mean and standard error to the mean (SEM).

The target of data set [12] is CYP2D6 (Homo sapiens, UniProt P10635). Kind of data set: Incubation with recombinant CYP2D6.
CYP2D6, sequence (P10635 whole entry): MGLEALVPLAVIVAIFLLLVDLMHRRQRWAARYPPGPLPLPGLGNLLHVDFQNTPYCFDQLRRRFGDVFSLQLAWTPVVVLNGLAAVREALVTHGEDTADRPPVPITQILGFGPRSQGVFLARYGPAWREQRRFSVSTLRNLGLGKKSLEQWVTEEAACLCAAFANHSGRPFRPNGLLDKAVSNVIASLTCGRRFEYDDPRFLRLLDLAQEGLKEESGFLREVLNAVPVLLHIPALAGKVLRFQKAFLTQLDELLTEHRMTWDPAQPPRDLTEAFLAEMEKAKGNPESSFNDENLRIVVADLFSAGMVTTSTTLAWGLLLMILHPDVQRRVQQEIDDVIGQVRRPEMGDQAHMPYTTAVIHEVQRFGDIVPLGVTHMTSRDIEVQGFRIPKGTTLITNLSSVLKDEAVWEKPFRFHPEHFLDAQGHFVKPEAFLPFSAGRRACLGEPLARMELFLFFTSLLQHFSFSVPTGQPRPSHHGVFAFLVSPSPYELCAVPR
Data set [13] deals with M2 (h) (antagonist radioligand) (Homo sapiens, UniProt P08172). The settings on record: at the tested concentration; negative values set to zero.
M2 (h) (antagonist radioligand), sequence (P08172 whole entry): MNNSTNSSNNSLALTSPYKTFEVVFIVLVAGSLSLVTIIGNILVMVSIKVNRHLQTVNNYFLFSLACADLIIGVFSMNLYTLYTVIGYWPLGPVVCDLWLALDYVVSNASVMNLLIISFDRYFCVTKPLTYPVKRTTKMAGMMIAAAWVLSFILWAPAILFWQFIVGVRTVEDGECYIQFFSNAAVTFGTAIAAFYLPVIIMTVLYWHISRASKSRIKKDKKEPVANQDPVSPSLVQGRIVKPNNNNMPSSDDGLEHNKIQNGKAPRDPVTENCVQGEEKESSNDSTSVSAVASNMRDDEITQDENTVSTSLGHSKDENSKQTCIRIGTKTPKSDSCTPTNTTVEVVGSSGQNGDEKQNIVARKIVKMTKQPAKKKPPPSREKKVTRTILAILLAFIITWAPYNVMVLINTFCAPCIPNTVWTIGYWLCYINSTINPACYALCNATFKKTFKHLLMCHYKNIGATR
The target of data set [14] is T1, CYP2C8 (Homo sapiens, UniProt P10632).
T1 sequence (P10632 1-490): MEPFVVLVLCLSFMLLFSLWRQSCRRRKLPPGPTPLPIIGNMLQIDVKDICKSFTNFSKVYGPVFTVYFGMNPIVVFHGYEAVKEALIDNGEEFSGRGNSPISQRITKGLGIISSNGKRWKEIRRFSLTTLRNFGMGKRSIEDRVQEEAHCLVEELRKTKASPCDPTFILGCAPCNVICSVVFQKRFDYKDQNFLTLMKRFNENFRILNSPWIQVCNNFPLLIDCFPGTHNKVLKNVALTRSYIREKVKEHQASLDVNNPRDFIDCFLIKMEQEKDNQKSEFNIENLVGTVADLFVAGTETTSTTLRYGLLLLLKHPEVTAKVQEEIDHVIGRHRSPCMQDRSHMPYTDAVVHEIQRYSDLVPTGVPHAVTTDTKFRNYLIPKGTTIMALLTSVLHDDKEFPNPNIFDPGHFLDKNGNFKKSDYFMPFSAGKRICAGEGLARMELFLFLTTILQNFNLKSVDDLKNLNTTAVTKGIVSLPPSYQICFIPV
Nature of the data set: Incubation with recombinant CYP2C8. The conditions noted are these: for t1/2: unit not given.

The target in data set [15] is CYP3A4 (Homo sapiens, UniProt P08684). Kind of data set: Incubation with recombinant CYP3A4.
CYP3A4, sequence (P08684 whole entry): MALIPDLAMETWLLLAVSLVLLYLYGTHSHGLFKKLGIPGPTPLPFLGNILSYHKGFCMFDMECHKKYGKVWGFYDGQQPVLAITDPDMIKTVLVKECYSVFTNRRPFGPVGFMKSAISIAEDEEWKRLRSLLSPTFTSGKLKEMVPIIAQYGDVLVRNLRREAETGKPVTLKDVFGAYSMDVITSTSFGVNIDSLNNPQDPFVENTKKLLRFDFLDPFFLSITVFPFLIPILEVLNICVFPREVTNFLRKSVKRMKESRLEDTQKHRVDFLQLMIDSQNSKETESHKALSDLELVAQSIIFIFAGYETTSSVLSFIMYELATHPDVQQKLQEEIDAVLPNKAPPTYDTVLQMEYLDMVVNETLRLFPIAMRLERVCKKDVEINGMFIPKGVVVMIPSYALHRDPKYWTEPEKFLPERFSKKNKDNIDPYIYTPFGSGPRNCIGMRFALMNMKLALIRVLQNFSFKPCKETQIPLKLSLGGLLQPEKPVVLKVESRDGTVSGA
The mark [16] stands for this setting: dog, dog liver microsomes, Example 15, Table 20.
Where [17] appears, read: human, human liver microsomes, Example 15, Table 20.
Where [18] appears, read: rat, rat liver microsomes, Example 15, Table 20.

D2L (h) (antagonist radioligand), sequence (P14416 whole entry): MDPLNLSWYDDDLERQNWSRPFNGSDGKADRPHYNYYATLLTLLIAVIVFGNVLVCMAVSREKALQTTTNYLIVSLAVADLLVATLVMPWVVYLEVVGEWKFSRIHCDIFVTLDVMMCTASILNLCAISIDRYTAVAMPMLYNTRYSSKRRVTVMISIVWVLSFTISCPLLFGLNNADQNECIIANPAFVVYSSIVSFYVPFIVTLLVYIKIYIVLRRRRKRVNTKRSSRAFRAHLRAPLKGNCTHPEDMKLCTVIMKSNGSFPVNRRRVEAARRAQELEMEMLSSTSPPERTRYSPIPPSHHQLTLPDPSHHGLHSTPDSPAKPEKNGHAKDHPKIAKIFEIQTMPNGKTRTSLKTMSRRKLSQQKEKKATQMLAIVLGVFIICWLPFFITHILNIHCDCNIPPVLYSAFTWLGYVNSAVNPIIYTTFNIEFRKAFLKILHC
M4 (h) (antagonist radioligand), sequence (P08173 whole entry): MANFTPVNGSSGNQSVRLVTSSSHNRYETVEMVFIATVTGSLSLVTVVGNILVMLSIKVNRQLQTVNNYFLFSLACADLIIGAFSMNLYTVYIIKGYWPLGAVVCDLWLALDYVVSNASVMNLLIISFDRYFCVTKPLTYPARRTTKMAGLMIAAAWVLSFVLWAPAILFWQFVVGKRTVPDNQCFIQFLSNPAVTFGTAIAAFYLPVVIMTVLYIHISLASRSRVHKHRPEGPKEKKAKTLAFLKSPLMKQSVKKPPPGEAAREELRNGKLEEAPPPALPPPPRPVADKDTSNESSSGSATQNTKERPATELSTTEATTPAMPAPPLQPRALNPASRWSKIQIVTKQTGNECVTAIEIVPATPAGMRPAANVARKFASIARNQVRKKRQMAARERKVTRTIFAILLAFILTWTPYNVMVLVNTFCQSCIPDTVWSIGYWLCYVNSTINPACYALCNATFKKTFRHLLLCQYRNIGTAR

With `O[C@@](CCN1CCCCC1)(c1ccccc1)C1CCCCC1` [(R)-THP, (R)-trihexyphenidyl], the “signal, D2L (h) (antagonist radioligand)” value in data set [1] was determined as 0.32%. For the same compound, in [2], the “signal, M4 (h) (antagonist radioligand)” value stood at 98.88%. Moreover, the “Substrates of CYP2C19” value in [3] was “Rac, R and S”. Further, the t1/2 result in data set [4], in [6] and in data set [14] was “∞” throughout. Moreover, the “Remaining Percentages (%) 0 min” value in data set [4] stood at 100.00%. The CLint scaled at 1 μM in [5] (setting [16]) stood at 318 mL/min/kg; in data set [5] (dog, dog liver microsomes, Table 5) it was 257 mL/min/kg; in data set [7] (setting [17]), 20.4 mL/min/kg; in data set [7] (human, human liver microsomes, Table 5), 21.8 mL/min/kg; in [9] (setting [18]) it was 5330 mL/min/kg; in data set [9] (rat, rat liver microsomes, Table 5) it was 5810 mL/min/kg. The microsomal CLint at 1 μM amounted to 146 µL/min/mg in [5] (dog, dog liver microsomes, with NADPH, Table 5); 180 µL/min/mg in data set [5] (setting [16]); 21.2 µL/min/mg in [7] (human, human liver microsomes, with NADPH, Table 5); 19.9 µL/min/mg in data set [7] (setting [17]); 2380 µL/min/mg in data set [9] (rat, rat liver microsomes, with NADPH, Table 5); 2190 µL/min/mg in data set [9] (setting [18]). The half-life at 1 μM in [5] (dog, with NADPH, 1 μM, Table 5) worked out at 9.51 min; in data set [5] (dog, Example 15, Table 20) it was 7.69 min; in data set [7] (human, with NADPH, 1 μM, Table 5), 65.8 min; in data set [7] (human, Example 15, Table 20), 69.7 min; in data set [9] (rat, with NADPH, 1 μM, Table 5), 0.58 min; in data set [9] (rat, Example 15, Table 20), 0.63 min. Further, the CLint in data set [6] and in data set [14] was 0.00 µL/min/pmol throughout. Further, the “signal, kappa (h) (KOP) (agonist radioligand)” value in [8] is “greater than 25%”; in [8] (listed as R-THP), 26.19%. The “Substrates of CYP3A5” value in [10] was “Rac, R and S”. In addition, the “time spent holding bar, haloperidol-induced catalepsy” value in data set [11] (30 minutes after injection) and in data set [11] (60 minutes after injection) was “significantly attenuated haloperidol-induced catalepsy” in each case. The “Efficacy of R-THP versus Rac-THP over a dosage range” value in [11] (catalepsy control, FIG. 6) was “half a dose of R-THP controls catalepsy at least as effectively as a full dose of Rac-THP”. In addition, the “Substrates of CYP2D6” value in data set [12] was “Rac, R and S”. Besides, the “signal, M2 (h) (antagonist radioligand)” value in data set [13] is listed as 98.95%. The “Substrates of CYP3A4” value in [15] is “Rac, R and S”. Also, in data set [15] (human), the half-life turned out to be 30.7 min.

On to `O[C@](CCN1CCCCC1)(c1ccccc1)C1CCCCC1` [(S)-THP, (S)-trihexyphenidyl], for which the “signal, D2L (h) (antagonist radioligand)” value in data set [1] stood at 28.50%. Besides, the “signal, M4 (h) (antagonist radioligand)” value in data set [2] is given as 97.82%. The “Substrates of CYP2C19” value in [3] is “Rac, R and S”. Also, the CLint scaled at 1 μM turned out to be 429 mL/min/kg in [5] (setting [16]), 58.9 mL/min/kg in [7] (setting [17]) and 1870 mL/min/kg in data set [9] (setting [18]). Also, the figures for the microsomal CLint at 1 μM in data set [5] (setting [16]), in [7] (setting [17]) and in [9] (setting [18]) were 244 µL/min/mg, 57.3 µL/min/mg and 768 µL/min/mg, respectively. The half-life at 1 μM in data set [5] (dog, Example 15, Table 20) stood at 5.72 min; in data set [7] (human, Example 15, Table 20), 24.2 min; in [9] (rat, Example 15, Table 20) it was 1.8 min. In addition, the CLint in [6] and in data set [14] was 0.00 µL/min/pmol in each case. In addition, the t1/2 entry in data set [6] and in data set [14] was “∞” each time. In data set [8], the “signal, kappa (h) (KOP) (agonist radioligand)” value was determined as 34.64%. For the same compound, in data set [10], the “Substrates of CYP3A5” value is “Rac, R and S”. For the same compound, in data set [10] (human), the half-life was found to be 48.7 min. Further, the figures for the “time spent holding bar, haloperidol-induced catalepsy” value in data set [11] (30 minutes after injection) and in data set [11] (60 minutes after injection) were “did not significantly differ from those of haloperidol-treated rats” and “no significant differences”, respectively. The “Substrates of CYP2D6” value in data set [12] is “Rac, R and S”. Further, in data set [13], the “signal, M2 (h) (antagonist radioligand)” value was 77.76%. Also, the “Substrates of CYP3A4” value in data set [15] was “Rac, R and S”.

Turning to `C[C@@H](C[N+](C)(C)C)OC(N)=O.[Cl-]` [(S)-BTC, (S)-bethanechol], in [4], the t1/2 result is given as “∞”. Further, in data set [4], the “Remaining Percentages (%) 0 min” value is given as 100.00%. The “Predicted Hepatic CLH” value was 0.00 mL/min/kg in data set [5] (dog liver microsomes, Table 5); 0.00 mL/min/kg in data set [7] (human liver microsomes, Table 5); 0.00 mL/min/kg in data set [9] (rat liver microsomes, Table 5). The “in vitro t1/2” value in data set [5] (dog, microsomes) is given as “∞”; in data set [7] (human, microsomes) it was “∞”; in data set [9] (rat, microsomes), “∞”.

In general, CLint scaled refers to the rate of metabolic loss divided by the concentration. A high value points to rapid turnover. One may read the microsomal CLint as the capacity of the preparation to metabolise the compound, expressed as a volume cleared per time. Read a high microsomal CLint as rapid turnover. Usually half-life stands for the time needed for the level to fall by half in the phase considered.
